In patent US10786508B2, “Substituted imidazo[1,5-A]-pyrimidines and their use in the treatment of medical disorders” (Lysosomal Therapeutics Inc., priority 2014, dated 2020):
≈ marks a conversion by molar mass, not a printed value.

Key:
[1] = Compound solubility in water; type: physicochemical
[2] = molecular target: T1, glucocerebrosidase (Gcase) (Homo sapiens, UniProt P04062); experiment: Glucocerebrosidase (Gcase) activation assay, 4-methylumbelliferyl-beta-D-glucopyranoside substrate, with saposin C; type: biochemical; conditions: 10 nM GCase, 100 nM saposin C, pH 4.7; for activation at 0.1 µM: 0.1 μM test compound, read-out: Percent Gease Activation 0.1 μM Test Compound; for activation at 1 µM: 1 μM test compound, read-out: Percent Gease Activation 1 μM Test Compound
T1 construct: micellar solution containing 10 nM GCase and 100 nM saposin C
T1 sequence (P04062 40-536): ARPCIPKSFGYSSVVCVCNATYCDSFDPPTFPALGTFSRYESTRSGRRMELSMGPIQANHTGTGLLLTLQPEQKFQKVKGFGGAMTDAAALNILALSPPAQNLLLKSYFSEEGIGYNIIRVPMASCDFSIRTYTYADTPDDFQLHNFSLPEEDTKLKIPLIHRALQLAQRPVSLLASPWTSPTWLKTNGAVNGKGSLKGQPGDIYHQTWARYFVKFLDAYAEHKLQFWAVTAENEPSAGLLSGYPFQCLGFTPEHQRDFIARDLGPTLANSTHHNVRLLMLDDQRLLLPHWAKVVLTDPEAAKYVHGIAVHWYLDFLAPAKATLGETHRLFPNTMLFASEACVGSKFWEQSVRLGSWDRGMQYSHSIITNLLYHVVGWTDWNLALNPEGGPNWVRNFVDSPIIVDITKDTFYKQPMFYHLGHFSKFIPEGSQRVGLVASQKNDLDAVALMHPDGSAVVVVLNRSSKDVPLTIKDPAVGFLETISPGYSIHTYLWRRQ
Description: The ability of exemplary compounds to activate glucocerebrosidase (Gcase) was measured.
A 484 μL aliquot of a 1.0 mg/mL solution of phosphatidylserine (PS) (Sigma P7769) in chloroform was evaporated under a stream of nitrogen for 1 hour. The lipid film was dissolved over 4 minutes of vigorous vortexing in 40 mL of 176 mM K2HPO4/50 mM citric acid (pH 4.7) containing 7.5 μL of triton X-100, resulting in a mixed micellar preparation with a composition of 0.32 mM triton and 0.37 mol % PS. 4-Methylumbelliferyl-beta-D-glucopyranoside (ACROS-337025000) was dissolved in the micellar solution to a final concentration of 2 mM for use as the reaction substrate.
Test compounds were diluted to the desired concentrations with dimethylsulfoxide (DMSO) from 10 mM stocks, and 0.41 μL of the DMSO compound mixture was added to 100 μL of micellar solution containing 10 nM GCase and 100 nM saposin C (Enzo ALX-201-262-C050). Pre-incubation was allowed to occur for 30 minutes at room temperature, after which the reaction was initiated by combining 25 μL of substrate solution with 25 μL of compound/GCase/saposin mixture. The reaction proceeded for 15 minutes at room temperature and was stopped by adding 150 μL of 1M glycine, pH 12.5. The endpoint of the reaction was monitored by measuring fluorescence intensity (excitation: 365 nm; emission: 440 nm) on a SpectraMax i3 instrument (Molecular Devices). Test compounds were screened at 1.0 and 0.1 μM final concentration, and subsequent 8-point dose response curves were obtained using 3-fold dilutions from a maximum final concentration of 5 μM.
For experiments in which the test compound was used at a concentration of 1.0 μM, the symbol “+” indicates less than 30% Gcase activation; the symbol “++” indicates Gcase activation in the range of 30% up to 60%; and the symbol “+++” indicates Gcase activation greater than 60%. For experiments in which the test compound was used at a concentration of 0.1 μM, the symbol “*” indicates less than 10% Gcase activation; the symbol “**” indicates Gcase activation in the range of 10% up to 20%; and the symbol “***” indicates greater than 20% Gcase activation.

Row | solubility [1] | activation at 0.1 µM [2] | activation at 1 µM [2] | SMILES
1 | 30.9 µg/mL (≈ 79.9 µM) | < 10% | 30 to 60% | CCCCCOC1CCC(NC(=O)c2ncn3c(C(C)C)cc(C)nc23)CC1 (stereo not drawn) [III-44]
2 | 1 µg/mL (≈ 2.99 µM) | > 20% | > 60% | Cc1cc(C(C)C)n2cnc(C(=O)Nc3cccc4c3CCC4)c2n1 [III-45]
3 | 38.5 µg/mL (≈ 91.1 µM) | 10 to 20% | > 60% | COCc1cc(C(C)C)n2cnc(C(=O)NC(C)(C)c3cccc(OC4CC4)c3)c2n1 [III-57]
4 | 28.9 µg/mL (≈ 68.4 µM) | 10 to 20% | > 60% | COCc1cc(C(C)C)nc2c(C(=O)NC(C)(C)c3cccc(OC4CC4)c3)ncn12 [III-58]
5 | 31.2 µg/mL (≈ 73.5 µM) | < 10% | < 30% | CCOCc1cccc(C(C)(C)NC(=O)c2ncn3c(C(C)C)cc(COC)nc23)c1 [III-60]
6 | 0.6 µg/mL (≈ 1.72 µM) | < 10% | 30 to 60% | Cc1cc(C)n2cnc(C(=O)Nc3ccc(-c4cscn4)cc3)c2n1 [III-64]
7 | 0.9 µg/mL (≈ 2.94 µM) | 10 to 20% | > 60% | Cc1cc(C)n2cnc(C(=O)Nc3cccc4c3CCC4)c2n1 [III-65]
8 | < 0.01 µg/mL | < 10% | < 30% | Cc1cc(C)n2cnc(C(=O)Nc3ccc(-c4ccco4)nc3)c2n1 [III-66]
9 | 18 µg/mL (≈ 58.8 µM) | < 10% | < 30% | Cc1cc(C)n2cnc(C(=O)NC3Cc4ccccc4C3)c2n1 [III-67]
10 | 21 µg/mL (≈ 68.5 µM) | < 10% | < 30% | Cc1cc(C)n2cnc(C(=O)NC3CCc4ccccc43)c2n1 (stereo not drawn) [III-68]

Continued, molecule first:

Row | SMILES | solubility [1] | activation at 0.1 µM [2] | activation at 1 µM [2]
11 | Cc1cc(C)n2cnc(C(=O)N[C@H]3CC[C@H](OC4CCC(C)(C)CC4)CC3)c2n1 [III-46] | 4.9 µg/mL (≈ 12.3 µM) | 10 to 20% | > 60%
12 | CCCCCCO[C@H]1CC[C@H](NC(=O)c2ncn3c(C)cc(C)nc23)C1 [III-47] | 30.6 µg/mL (≈ 85.4 µM) | < 10% | > 60%
13 | CCCOc1cccc(C(C)(C)NC(=O)c2ncn3c(C4CC4)cc(COC)nc23)c1 [III-50] | 31.3 µg/mL (≈ 74.1 µM) | 10 to 20% | > 60%
14 | CCCOc1cccc(C(C)(C)NC(=O)c2ncn3c(COC)cc(C4CC4)nc23)c1 [III-51] | 10.5 µg/mL (≈ 24.9 µM) | > 20% | > 60%
15 | CCCOc1cccc(C(C)(C)NC(=O)c2ncn3c(COC)cc(COC)nc23)c1 [III-52] | 37.6 µg/mL (≈ 88.2 µM) | 10 to 20% | > 60%
16 | CCCOc1cccc(C(C)(C)NC(=O)c2ncn3c(COC)c(OC)c(C)nc23)c1 [III-53] | 52.9 µg/mL (≈ 124 µM) | < 10% | 30 to 60%
17 | COCc1cc(C2CC2)n2cnc(C(=O)NC(C)(C)c3cccc(C#N)c3)c2n1 [III-54] | 23.4 µg/mL (≈ 60.1 µM) | < 10% | < 30%
18 | COCc1cc(C2CC2)n2cnc(C(=O)NC(C)(C)c3cccc(OC4CC4)c3)c2n1 [III-55] | 26.3 µg/mL (≈ 62.5 µM) | 10 to 20% | > 60%
19 | COCc1cc(C2CC2)nc2c(C(=O)NC(C)(C)c3cccc(OC4CC4)c3)ncn12 [III-56] | 14.4 µg/mL (≈ 34.2 µM) | 10 to 20% | > 60%
20 | CCOCc1cccc(C(C)(C)NC(=O)c2ncn3c(COC)cc(C4CC4)nc23)c1 [III-59] | 26.3 µg/mL (≈ 62.2 µM) | < 10% | 30 to 60%
21 | CCOCc1cccc(C(C)(C)NC(=O)c2ncn3c(COC)cc(C(C)C)nc23)c1 [III-61] | 20.6 µg/mL (≈ 48.5 µM) | < 10% | 30 to 60%
22 | CO[C@H]1CC[C@H](C(C)(C)NC(=O)c2ncn3c(C)cc(C)nc23)CC1 [III-62] | 27 µg/mL (≈ 78.4 µM) | < 10% | < 30%
23 | CO[C@H]1CC[C@@H](C(C)(C)NC(=O)c2ncn3c(C)cc(C)nc23)CC1 [III-63] | 36.2 µg/mL (≈ 105 µM) | < 10% | 30 to 60%
